# Laboratory results: patent publication US12338244B2, “Temozolomide compounds, polymers prepared therefrom, and method of treating a disease” (University of Massachusetts, priority 2016, dated 2025)
# Assays:
# [1] = Stability of TMZ in organic solvents by UV-Vis spectroscopy; format: physicochemical; conditions: 0.01 mg/ml in 1:1 MeOH:DMSO
# Method: This observation prompted investigation of the stability of TMZ in organic solvents, a property not previously reported to our knowledge. Solutions of TMZ (0.01 milligram per milliliter concentration) in 1:1 MeOH:DMSO, DMSO, ACN, and 2,2,2-trifluoroethanol (TFE) were incubated at room temperature, as well as elevated temperatures (e.g., 50° C. and 70° C.). […] The marked difference in stability of TMZ observed between MeOH and TFE was attributed to the poor nucleophilicity of the latter, which precludes rapid imidazotetrazine solvolysis.
# U87MG cells = experiment: CellTiter-Glo luminescent cell viability assay, cytotoxic effects on glioblastoma cell line; format: cell-based; conditions: Homo sapiens, U-87 MG, 168 h; U87MG (TMZ sensitive) cells, Day 7, doses 0-10000 μM
# Method: Testing of the cytotoxic effects of polyMPC-TMZ on glioblastoma (GBM) cell lines utilized U87MG (TMZ sensitive cell line) and T98G (TMZ-resistant cell line). […] U87MG cells were plated on 96 well plates and cultured overnight in DMEM media containing 10% FBS at 37° C. in a CO2 incubator. The cells were treated with different doses of TMZ (0-10000 μM), polyMPC-TMZ-17% (random copolymer with 17 mole percent TMZ monomer) (0-10000 μM), polyMPC-TMZ-26% (random copolymer with 26% TMZ monomer) (0-10000 μM), polyMPC-TMZ-33% (random copolymer with 33% TMZ monomer) (0-10000 μM) or polyMPC-TMZ-50% random copolymer with 50 mole percent TMZ monomer) (0-10000 μM) and cell viability was tested on Day 7 using the CellTiter-Glo luminescent cell viability assay purchased from Promega, Inc. PolyMPC itself was used as a control polymer. […] All of the polyMPC-TMZ conjugates were efficacious, with a modified toxicity response as is typical of polymer prodrugs which mask the toxicity of the drug prior to making them available to the tumor. […] The higher IC50 values of polyMPC-TMZ will allow for introduction of larger drug doses in in vivo experiments.
compound,measurement,setting,value
"Cn1nnc2c(C(N)=O)ncn2c1=O [TMZ, Temozolomide]","degradation in MeOH:DMSO mixture, heated","[1]; 50° C. or 70° C., after 1 hour",fully degraded
same,"degradation in MeOH:DMSO mixture, room temperature",[1]; room temperature,significant degradation
same,IC50,U87MG cells,~192 µM
